The source made the active and inactive calls. The calls are words filed in the database; no cut-off is given here.
What was measured:
4T1 [1] = assay: Antitumor activity against mouse 4T1 cells implanted in female BALB/c mouse model assessed as increase in tumor cell necrosis at 50 mg/kg, po qd measured for 18 days in presence of chloroquine; assay type: functional, organism-based; settings: time 18.0 day
[2] = Apparent volume of distribution in Sprague-Dawley rat at 1 mg/kg, iv by LC-MS/MS analysis; assay type: ADME, organism-based; settings: in vivo, read-out: Vz
MCF7 [3] = assay: Inhibition of colony formation in human MCF7 cells at 1 uM incubated for 6 hrs in presence of chloroquine by crystal violet staining based analysis; assay type: functional, cell-based
MCF7 [4] = assay: Induction of autophagic flux in human MCF7 cells assessed as appearance of multi membrane structure at 0.5 to 2 uM by TEM based analysis; assay type: functional, cell-based; settings: dose 0.5-2 µM
MCF7 [5] = assay: Induction of autophagy in human MCF7 cells assessed as increase in acidic vesicular organelles at 0.5 to 2 uM by Acridine orange staining based analysis; assay type: functional, cell-based; settings: dose 0.5-2 µM
4T1 [6] = assay: Antitumor activity against mouse 4T1 cells implanted in female BALB/c mouse model assessed as reduction in number of PCNA-positive proliferative cells at 25 to 50 mg/kg, po qd by immunohistochemical analysis; assay type: functional, organism-based; settings: dose 25-50 mg/kg
[7] = target: Mitogen-activated protein kinase 1 (Homo sapiens, UniProt P28482); assay: Binding affinity to ERK2 (unknown origin) assessed as dissociation constant by MST analysis
[8] = Oral availability in Sprague-Dawley rat at 10 mg/kg by LC-MS/MS analysis; assay type: ADME, organism-based; settings: in vivo
Mitochondrial membrane = assay: Induction of mitochondrial membrane potential loss in human MCF7 cells assessed as reduction in JC-1 aggregates by measuring decrease in red fluorescence at 2 uM by flow cytometry analysis (reference value: 24.7%); assay type: cell membranes; set-up: scale not given: the % may be the effect or the level left
[9] = target: Ribosomal protein S6 kinase alpha-1 (Homo sapiens, UniProt Q15418); assay: Inhibition of RSK1 (unknown origin) incubated for 60 mins by luminescence based ADP-Glo kinase assay
[10] = target: Mitogen-activated protein kinase; ERK1/ERK2 (Homo sapiens) (UniProt P27361+P28482); assay: Induction of thermal stabilization of ERK1/2 in human MCF7 cells at 10 uM incubated for 3 hrs at 65 to 75 degree C by […] method; assay type: cell-based
[11] = Toxicity in female BALB/c mouse assessed as effect on tumor at 50 mg/kg, po qd measured after 18 days in presence of chloroquine by H and E staining based analysis; assay type: organism-based; settings: in vivo, 432 h, time 18 day
MDA-MB-468 = assay: Antiproliferative activity against human MDA-MB-468 cells incubated for 48 hrs by CCK-8 method; assay type: functional, cell-based; settings: MDA-MB-468, 48 h
4T1 [12] = assay: Antitumor activity against mouse 4T1 cells implanted in female BALB/c mouse model assessed as reduction in number of Ki67-positive proliferative cells at 25 to 50 mg/kg, po qd by immunohistochemical analysis; assay type: functional, organism-based; settings: dose 25-50 mg/kg
[13] = Toxicity in female BALB/c mouse assessed as effect on spleen at 25 to 50 mg/kg, po qd measured after 18 days by H and E staining based analysis; assay type: organism-based; settings: in vivo, 432 h, dose 25-50 mg/kg, time 18 day
MCF7 [14] = assay: Induction of apoptosis in human MCF7 cells assessed as late apoptotic cells at 2 uM incubated for 48 hrs by Annexin V/FITC and PI staining based flow cytometry analysis (reference value: 2.5%); assay type: functional
MCF7 [15] = assay: Induction of apoptosis in human MCF7 cells assessed as early apoptotic cells at 2 uM incubated for 48 hrs by Annexin V/FITC and PI staining based flow cytometry analysis (reference value: 1.1%); assay type: functional
4T1 [16] = assay: Antitumor activity against mouse 4T1 cells implanted in female BALB/c mouse model assessed as tumor growth inhibition at 50 mg/kg, po qd measured for 18 days relative to control; assay type: functional; settings: 4T1, 432 h, time 18 day, read-out: TGI
4T1 [17] = assay: Antitumor activity against mouse 4T1 cells implanted in female BALB/c mouse model assessed as reduction in Ki67 expression at 50 mg/kg, po in presence of chloroquine by immunohistochemical analysis; assay type: functional, organism-based
[18] = Toxicity in female BALB/c mouse assessed as effect on liver at 50 mg/kg, po qd measured after 18 days in presence of chloroquine by H and E staining based analysis; assay type: organism-based; settings: in vivo, 432 h, time 18 day
MCF7 [19] = assay: Activation of ERK1/2 pathway in human MCF7 cells assessed as increase in EGF-induced ERK phosphorylation at 2 uM incubated for 30 mins by Western blot analysis; assay type: cell-based; settings: filed as activator
MCF7 [20] = assay: Antiproliferative activity against human MCF7 cells harbouring ERK1 knockout incubated for 48 hrs by CCK-8 method; assay type: functional, cell-based
4T1-Luc = assay: Anti-metastatic activity in mouse 4T1-Luc cells assessed as reduction in condensed nuclei at 25 to 50 mg/kg, po measured after 20 days by H and E staining based analysis; assay type: functional, organism-based; settings: dose 25-50 mg/kg, time 20.0 day
MCF7 [21] = assay: Upregulation of caspase3 protein expression in human MCF-7 cells at 1 uM incubated for 6 hrs in presence of chloroquine by Western blot analysis; assay type: functional, cell-based
[22] = target: Non-receptor tyrosine-protein kinase TYK2 (Homo sapiens) (UniProt P29597); assay: Inhibition of human TYK2 at 10000 nM by DiscoverX KINOMEscan assay relative to control
MCF7 [23] = assay: Induction of autophagy in human MCF7 cells assessed as increase in LC3B-II level at 1 uM by Western blot analysis; assay type: functional, cell-based
MCF7 [24] = assay: Induction of apoptosis in human MCF7 cells assessed as early apoptotic cells at 1 uM incubated for 48 hrs in presence of 3-methyladenine by Annexin V/FITC and PI staining based flow cytometry analysis (reference value: 8.14%); assay type: functional
MCF7 [25] = assay: Induction of apoptosis in human MCF7 cells assessed as late apoptotic cells at 0.5 uM incubated for 48 hrs by Annexin V/FITC and PI staining based flow cytometry analysis (reference value: 2.5%); assay type: functional
[26] = Toxicity in female BALB/c mouse assessed as effect on kidney at 50 mg/kg, po qd measured after 18 days in presence of chloroquine by H and E staining based analysis; assay type: organism-based; settings: in vivo, 432 h, time 18 day
MCF7 [27] = assay: Induction of apoptosis in human MCF7 cells assessed as early apoptotic cells at 0.5 uM incubated for 48 hrs by Annexin V/FITC and PI staining based flow cytometry analysis (reference value: 1.1%); assay type: functional
MCF7 [28] = assay: Induction of apoptosis in human MCF7 cells assessed as early apoptotic cells at 1 uM incubated for 48 hrs by Annexin V/FITC and PI staining based flow cytometry analysis (reference value: 1.1%); assay type: functional
MCF7 [29] = assay: Inhibition of cell migration in human MCF7 cells at 0.5 to 2 uM incubated for 48 hrs by wound healing assay; assay type: functional, cell-based; settings: dose 0.5-2 µM

Sequence of Ribosomal protein S6 kinase alpha-1 (Q15418 whole entry): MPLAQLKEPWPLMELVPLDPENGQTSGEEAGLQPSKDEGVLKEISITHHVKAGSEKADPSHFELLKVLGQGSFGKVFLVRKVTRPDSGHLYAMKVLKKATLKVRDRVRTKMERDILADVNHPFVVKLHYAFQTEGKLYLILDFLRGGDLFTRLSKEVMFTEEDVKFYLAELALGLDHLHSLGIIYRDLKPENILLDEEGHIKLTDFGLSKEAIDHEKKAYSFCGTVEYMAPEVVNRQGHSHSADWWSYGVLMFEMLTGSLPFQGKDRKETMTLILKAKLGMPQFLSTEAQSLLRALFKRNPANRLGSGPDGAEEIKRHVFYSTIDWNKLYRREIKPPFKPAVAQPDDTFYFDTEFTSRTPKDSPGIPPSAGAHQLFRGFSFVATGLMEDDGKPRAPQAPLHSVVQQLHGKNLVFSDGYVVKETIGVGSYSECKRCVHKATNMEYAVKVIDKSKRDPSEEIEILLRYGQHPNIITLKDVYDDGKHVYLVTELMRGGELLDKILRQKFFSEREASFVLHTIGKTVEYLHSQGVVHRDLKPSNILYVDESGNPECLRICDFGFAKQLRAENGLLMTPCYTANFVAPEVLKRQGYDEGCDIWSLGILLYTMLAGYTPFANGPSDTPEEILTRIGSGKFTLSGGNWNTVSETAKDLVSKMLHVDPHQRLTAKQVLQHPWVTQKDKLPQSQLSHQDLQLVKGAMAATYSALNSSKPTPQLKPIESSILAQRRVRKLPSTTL
Sequence of Non-receptor tyrosine-protein kinase TYK2 (Homo sapiens) (P29597 whole entry): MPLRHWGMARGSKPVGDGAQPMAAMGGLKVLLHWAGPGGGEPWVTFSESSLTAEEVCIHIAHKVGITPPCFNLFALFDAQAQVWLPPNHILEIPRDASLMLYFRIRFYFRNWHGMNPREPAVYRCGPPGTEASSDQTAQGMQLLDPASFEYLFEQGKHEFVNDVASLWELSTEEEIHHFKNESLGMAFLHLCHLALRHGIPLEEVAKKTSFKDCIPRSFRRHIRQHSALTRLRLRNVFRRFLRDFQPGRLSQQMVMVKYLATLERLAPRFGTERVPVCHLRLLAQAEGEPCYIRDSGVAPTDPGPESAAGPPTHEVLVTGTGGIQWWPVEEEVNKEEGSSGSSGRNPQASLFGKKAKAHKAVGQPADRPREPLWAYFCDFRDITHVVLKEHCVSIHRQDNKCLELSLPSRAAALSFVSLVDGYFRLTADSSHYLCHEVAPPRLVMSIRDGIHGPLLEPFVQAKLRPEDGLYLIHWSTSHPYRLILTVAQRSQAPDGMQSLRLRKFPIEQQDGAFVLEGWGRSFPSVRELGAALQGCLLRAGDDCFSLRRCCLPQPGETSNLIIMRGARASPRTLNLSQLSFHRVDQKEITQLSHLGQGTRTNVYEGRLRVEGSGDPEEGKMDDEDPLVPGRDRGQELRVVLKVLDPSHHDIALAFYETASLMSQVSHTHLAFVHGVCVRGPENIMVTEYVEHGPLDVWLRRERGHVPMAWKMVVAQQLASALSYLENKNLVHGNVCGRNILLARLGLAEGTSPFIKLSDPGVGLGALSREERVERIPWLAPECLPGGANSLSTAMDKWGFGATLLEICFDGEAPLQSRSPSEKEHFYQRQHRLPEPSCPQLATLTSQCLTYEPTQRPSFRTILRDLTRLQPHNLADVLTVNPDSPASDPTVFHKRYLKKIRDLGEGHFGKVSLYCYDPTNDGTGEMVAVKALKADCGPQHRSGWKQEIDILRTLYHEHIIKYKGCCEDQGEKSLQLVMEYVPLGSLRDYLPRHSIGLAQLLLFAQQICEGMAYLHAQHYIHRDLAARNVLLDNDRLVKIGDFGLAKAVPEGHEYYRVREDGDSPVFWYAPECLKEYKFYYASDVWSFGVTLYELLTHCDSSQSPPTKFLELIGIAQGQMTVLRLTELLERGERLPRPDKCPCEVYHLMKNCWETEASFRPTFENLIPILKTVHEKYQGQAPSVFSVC
Sequence of Mitogen-activated protein kinase; ERK1/ERK2 (Homo sapiens) (P27361 whole entry, looked up): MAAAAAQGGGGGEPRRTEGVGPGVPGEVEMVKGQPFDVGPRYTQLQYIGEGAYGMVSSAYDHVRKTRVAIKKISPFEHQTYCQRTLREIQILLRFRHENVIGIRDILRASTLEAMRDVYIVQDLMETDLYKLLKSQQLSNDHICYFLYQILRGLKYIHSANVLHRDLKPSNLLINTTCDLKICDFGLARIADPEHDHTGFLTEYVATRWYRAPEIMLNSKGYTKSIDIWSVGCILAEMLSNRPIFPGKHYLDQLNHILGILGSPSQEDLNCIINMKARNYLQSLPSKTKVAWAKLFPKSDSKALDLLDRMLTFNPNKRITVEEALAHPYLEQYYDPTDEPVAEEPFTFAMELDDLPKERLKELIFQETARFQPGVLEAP
Sequence of Mitogen-activated protein kinase; ERK1/ERK2 (Homo sapiens) (P28482 whole entry, looked up): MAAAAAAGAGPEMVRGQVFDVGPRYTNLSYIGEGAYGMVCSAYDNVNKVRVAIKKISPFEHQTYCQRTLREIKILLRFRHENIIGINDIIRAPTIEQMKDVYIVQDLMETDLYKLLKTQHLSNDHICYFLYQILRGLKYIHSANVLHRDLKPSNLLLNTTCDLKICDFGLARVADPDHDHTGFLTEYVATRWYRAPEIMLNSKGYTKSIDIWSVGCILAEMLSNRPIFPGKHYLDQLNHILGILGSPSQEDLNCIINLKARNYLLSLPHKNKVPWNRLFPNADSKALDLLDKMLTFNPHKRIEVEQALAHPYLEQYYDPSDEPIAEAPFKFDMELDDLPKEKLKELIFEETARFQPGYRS
Sequence of Mitogen-activated protein kinase 1 (P28482 whole entry): as the sequence (P28482 whole entry, looked up) above

Vd [2]: 4.41 L/kg
Kd [7]: 116 nM
bioavailability [8]: 37.1%
Activity (Mitochondrial membrane): 5.4%
IC50 [9]: 674 nM
Activity [10]: Active
IC50 (MDA-MB-468): 2150 nM
inhibition [22]: 14%
Compound: O=C(Nc1cc(C(F)(F)F)cc(C(F)(F)F)c1)N[C@@H](Cc1ccccc1)Cn1c[n+](Cc2ccc3ccccc3c2)c2ccccc21.[Br-]
Activity (4T1 [1]): Active
inhibition (MCF7 [3]): Active
Activity (MCF7 [4]): Active
Activity (MCF7 [5]): Active
Activity (4T1 [6]): Active
Activity [11]: Non-toxic
Activity (4T1 [12]): Active
Activity [13]: Non-toxic
Activity (MCF7 [14]): 14.8%
Activity (MCF7 [15]): 12.9%
inhibition in vivo at 50 mg/kg (4T1 [16]): 54.9%
Activity (4T1 [17]): Active
Activity [18]: Non-toxic
Activity (MCF7 [19]): Active
Activity (MCF7 [20]): Not active; Compound Showed Less Sensitivity Response
Activity (4T1-Luc): Active
Activity (MCF7 [21]): Active
Activity (MCF7 [23]): Active
Activity (MCF7 [24]): 3.81%
Activity (MCF7 [25]): 7.8%
Activity [26]: Non-toxic
Activity (MCF7 [27]): 9.9%
Activity (MCF7 [28]): 11.6%
inhibition (MCF7 [29]): Active

Source: ChEMBL document CHEMBL6153138, “Discovery of Novel Aromatic Urea-Imidazole Salt Derivatives for Cancer Therapy via Targeting ERK1/2” (J Med Chem, 2025)
